Patent publication US6156724A, “Uses of didemnins as immunomodulating agents” (priority 1998, dated 2000)
Like-named read-outs stand apart in the source and are kept apart here. Numbered stars: 1 amine (or outer) side, 2 acyl side, 3 side chain; on linkers, the order of the positions; unused ones are H or OH. Bridge positions count the residues as written; N and C are the ends. Square brackets hold non-standard residues; d marks the D form. Peptide text beside a SMILES is read from it. * marks the point of attachment. X1 = CC[C@H](C)[C@@H](N[*:1])[C@@H](O)CC(=O)O[C@H](C(=O)[C@H](C)C(=O)[*:2])C(C)C; NMeY = CN[C@@H](Cc1ccc(O)cc1)C(=O)O; dNMeL = CN[C@H](CC(C)C)C(=O)O; pGlu = O=C1CC[C@@H](C(=O)O)N1; Isobutyryl = CC(C)C(=O)*; Pyruvoyl = CC(=O)C(=O)*; Lac = C[C@H](O)C(=O)O; Propionyl = CCC(=O)*

What was measured:
[1] = tested on: murine splenocytes (Balb/c and C57B1/6); assay: Two-way mixed lymphocyte reaction (MLR) assay;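 also: proliferation read as tritiated thymidine incorporation into newly made DNA after an overnight pulse, expressed as percent of control activity, IC50 interpolated per compound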
[2] = tested on: Balb/c splenocytes (resting lymphocytes); assay: Lymphocyte viability (LcV) assay; type: cell-based, murine; conditions: unstimulated Balb/c splenocytes, MTT
Experimental: Forty two (42) didemnin compounds (see Table 1) were evaluated for cytotoxicity to one of the lymphocyte populations in the MLR (i.e., Balb/c splenocytes). The purpose of the lymphocyte viability assay (LcV) is to measure metabolic activity in lymphocytes after they have been exposed to the compounds for the duration of an under conditions equivalent to the MLR. The inverse of the data yields cytotoxicity information about the compounds on murine lymphocytes. The rationale of using resting cells, in this case unstimulated lymphocytes, to measure cytotoxicity has a strategic importance. In the MLR the heterogenous cell populations are predominantly resting cells when the assay begins.
Test compounds were prepared in two sets as described above. Splenocytes were prepared as described previously from one murine strain (Balb/c), and a volume of 200 μL of the cell suspension was added to one set of test compounds and control wells.
Assay plates were incubated as in the MLR and then pulsed overnight 75 μL per well MTT-thiazolyl blue solution (150 μg). The plates were decanted and the resulting insoluble formazan crystals were dissolved in 200 μL of isopropyl alcohol. Absorbance at 570 nm was measured.
The LcV data were calculated as a percentage of basal metabolic activity, or percent viability, relative to BALB/c control, and an LC50 value was interpolated for each test compound.

[3] = tested on: concanavalin A-induced lymphoblasts (Con A splenocytes); assay: Lymphoblast viability (LbV) assay; conditions: Con A-stimulated splenocytes (lymphoblasts), MTT
[4] = Balb/c + C57B1/6 splenocytes, 96 h, [3H]thymidine
[5] = read-out: two-way mixed lymphocyte reaction (MLR) suppression MLR, IC50, Balb/c + C57B1/6 splenocytes, 96 h, [3H]thymidine

Row | Molecule | two-way mixed lymphocyte reaction (MLR) suppression MLR, IC50 [1, 4] | IC50 [1, 5] | cytoxicity to lymphocytes LcV, LC50 [2] | cytoxicity to lymphocytes LcV, LC50 ([2]; highest concentration 10 μg/mL) | cytotoxicity to lymphocytes LbV, LC50 [3] | IC50 ([1]; read-out: MLR IC50)
1 | CC[C@H](C)[C@H]1NC(=O)[C@@H](NC(=O)[C@@H](CC(C)C)N(C)C(=O)[C@@H]2CCCN2C(=O)C(C)=O)[C@@H](C)OC(=O)[C@H](Cc2ccc(OC)cc2)N(C)C(=O)[C@@H]2CCCN2C(=O)[C@H](CC(C)C)NC(=O)[C@@H](C)C(=O)[C@H](C(C)C)OC(=O)C[C@@H]1O [Compound 30, dehydrodidemnin B] (Pyruvoyl-P[dNMeL]T[X1]LP[NMeY](Me); ester 3-C) | 0.43 ng/mL | 0.38 nM | 2600 nM | 2.90 µg/mL | 0.079 nM | –
2 | CC[C@H](C)[C@H]1NC(=O)[C@@H](NC(=O)[C@@H](CC(C)C)N(C)C(=O)[C@@H]2CCCN2C(C)=O)[C@@H](C)OC(=O)[C@H](Cc2ccc(OC)cc2)N(C)C(=O)[C@@H]2CCCN2C(=O)[C@H](CC(C)C)NC(=O)[C@@H](C)C(=O)[C@H](C(C)C)OC(=O)C[C@@H]1O [Compound 31, [Acetyl^9]Didemnin B] (Ac-P[dNMeL]T[X1]LP[NMeY](Me); ester 3-C) | 0.22 ng/mL | 0.21 nM | 2800 nM | 3.10 µg/mL | 0.16 nM | –
3 | CCC(=O)N1CCC[C@H]1C(=O)N(C)[C@H](CC(C)C)C(=O)N[C@@H]1C(=O)N[C@H]([C@@H](C)CC)[C@@H](O)CC(=O)O[C@@H](C(C)C)C(=O)[C@H](C)C(=O)N[C@@H](CC(C)C)C(=O)N2CCC[C@H]2C(=O)N(C)[C@@H](Cc2ccc(OC)cc2)C(=O)O[C@@H]1C [Compound 32, [Propionyl^9]Didemnin B] (Propionyl-P[dNMeL]T[X1]LP[NMeY](Me); ester 3-C) | 0.26 ng/mL | 0.23 nM | 1980 nM | 2.20 µg/mL | 0.184 nM | –
4 | CC[C@H](C)[C@H]1NC(=O)[C@@H](NC(=O)[C@@H](CC(C)C)N(C)C(=O)[C@@H]2CCCN2C(=O)C(C)C)[C@@H](C)OC(=O)[C@H](Cc2ccc(OC)cc2)N(C)C(=O)[C@@H]2CCCN2C(=O)[C@H](CC(C)C)NC(=O)[C@@H](C)C(=O)[C@H](C(C)C)OC(=O)C[C@@H]1O [Compound 33, [Isobutyryl^9]Didemnin B] (Isobutyryl-P[dNMeL]T[X1]LP[NMeY](Me); ester 3-C) | 0.041 ng/mL | 0.037 nM | 2240 nM | 2.40 µg/mL | 0.204 nM | –
5 | CC[C@H](C)[C@H]1NC(=O)[C@@H](NC(=O)[C@@H](CC(C)C)N(C)C(=O)[C@H]2CCCN2C(=O)C(C)C)[C@@H](C)OC(=O)[C@H](Cc2ccc(OC)cc2)N(C)C(=O)[C@@H]2CCCN2C(=O)[C@H](CC(C)C)NC(=O)[C@@H](C)C(=O)[C@H](C(C)C)OC(=O)C[C@@H]1O [Compound 34, [Isobutyryl^9, D-Pro^8] Didemnin B] (Isobutyryl-[dP][dNMeL]T[X1]LP[NMeY](Me); ester 3-C) | 0.67 ng/mL | 0.6 nM | 5600 nM | 6.20 µg/mL | 4.81 nM | –
6 | CC[C@H](C)[C@H]1NC(=O)[C@@H](NC(=O)[C@@H](CC(C)C)N(C)C(=O)[C@H](C)NC(=O)[C@H](C)O)[C@@H](C)OC(=O)[C@H](Cc2ccc(OC)cc2)N(C)C(=O)[C@@H]2CCCN2C(=O)[C@H](CC(C)C)NC(=O)[C@@H](C)C(=O)[C@H](C(C)C)OC(=O)C[C@@H]1O [Compound 35, [L-Ala^8]Didemnin B] | 0.33 ng/mL | 0.31 nM | > 9200 nM | > 10 µg/mL | 0.717 nM | –
7 | CC[C@H](C)[C@H]1NC(=O)[C@@H](NC(=O)[C@@H](CC(C)C)N(C)C(=O)[C@@H]2CCCN2C(=O)[C@H](C)OC(=O)[C@H](CCC(N)=O)NC(=O)[C@H](CCC(N)=O)NC(=O)[C@@H]2CCC(=O)N2)[C@@H](C)OC(=O)[C@H](Cc2ccc(OC)cc2)N(C)C(=O)[C@@H]2CCCN2C(=O)[C@H](CC(C)C)NC(=O)[C@@H](C)C(=O)[C@H](C(C)C)OC(=O)C[C@@H]1O [Compound 39, Didemnin E] ([pGlu]QQ[Lac]P[dNMeL]T[X1]LP[NMeY](Me); ester 7-C) | 0.012 ng/mL | 0.0084 nM | > 6770 nM | > 10 µg/mL | 1.4 nM | 0.0084 nM
8 | CC[C@H](C)[C@H]1NC(=O)[C@@H](NC(=O)[C@@H](CC(C)C)N(C)C(=O)[C@@H]2CCCN2C(=O)[C@H](C)OC(=O)[C@H](CCC(N)=O)NC(=O)[C@H](CCC(N)=O)NC(=O)[C@H](CCC(N)=O)NC(=O)[C@@H]2CCC(=O)N2)[C@@H](C)OC(=O)[C@H](Cc2ccc(OC)cc2)N(C)C(=O)[C@@H]2CCCN2C(=O)[C@H](CC(C)C)NC(=O)[C@@H](C)C(=O)[C@H](C(C)C)OC(=O)C[C@@H]1O [Compound 40, Didemnin D] ([pGlu]QQQ[Lac]P[dNMeL]T[X1]LP[NMeY](Me); ester 8-C) | 0.20 ng/mL | 0.12 nM | > 6220 nM | > 10 µg/mL | 0.85 nM | –
9 | Didemnin X [Compound 41] | 0.83 ng/mL | 0.5 nM | 6010 nM | 10.0 µg/mL | 3.1 nM | –
10 | Didemnin Y [Compound 42] | 0.89 ng/mL | 0.5 nM | > 5570 nM | > 10 µg/mL | 1.1 nM | –
11 | [Anhydro1st^2 ][Phth-Ala^9 ]DB [Compound 9] | 0.30 ng/mL | 0.25 nM | > 8200 nM | > 10 µg/mL | 1.9 nM | –
12 | [Phth-Ala^9 ]DB [Compound 8] | 0.49 ng/mL | 0.39 nM | > 8100 nM | > 10 µg/mL | 0.81 nM | –
